Test results published in patent US6383521B1, “Wondonin A and process for preparing the same” (Korea Ocean Research and Development, priority 2000, dated 2002).

Legend:
[1] = test system: Human umbilical vascular endothelial cells (HUVEC); assay: Invasion assay of HUVEC through Matrigel/Type IV collagen coated filter; type: cell-based; settings: 10 μg/ml Wondonin A medium, bFGF, 18 hours
Procedure: Powdered medium 199 (M 199, Sigma Chemical Co., U.S.A.) and 2.2 g (per liter) of sodium bicarbonate was dissolved in double distilled water, pH of the medium was adjusted to 7.2 with HCl, and followed by sterile filtration on a […] Millipore filter. Then, a medium was finally prepared by supplementing, just before use, with 20% (w/v) FBS (fetal bovine serum ), 1% (w/v) Penicillin-Streptomycin (P-S), 3 ng/ml bFGF (basic fibroblast growth factor, a growth factor for angiogenesis) and 100 μg/ml heparin. Human umbilical vascular endothelial cells (“HUVEC”) purchased from ATCC (American Type Culture Collection) were seeded to 6 ml of the medium thus prepared in a T25 flask (25 cm^2) and grown to form a monolayer in an incubator at 37° C. under an environment of 5% (v/v) CO2 and saturated humidity, and then subcultured in a medium containing 0.05% (w/v) Trypsin-EDTA.
For invasion assay, lower surface of the polycarbonate filter (pore size: 8 μm) equipped in an insert chamber was coated with 5 μg of Type IV collagen and upper surface of the filter was coated with 25 μg of Matrigel (Collaborative Research, Inc., Waltham, Mass., U.S.A.). […] After staining of the fixed cells with haematoxillin and eosin, Matrigel was detached from the filter and HUVEC cells which have passed through the filter were counted. […]

[2] = test system: chick embryo chorioallantoic membrane; assay: Chick embryo chorioallantoic membrane assay; type: in vivo; settings: ratio of embryos with avascular zone to total embryos; cover slip on CAM, 2 days incubation
Procedure: On day 3.5, a part of egg shell was cracked gently, and on day 4.5, a cover slip containing Wondonin A (prepared by drying […] Wondonin A in methanol on a cover slip) or a control cover slip (prepared by drying 2 μl of methanol on a cover slip) was placed on the chorioallantoic membrane (CAM) through the crack and then the crack was sealed. After incubation for 2 days, 10% fat emulsion was injected to CAM, which was examined under a microscope. The embryos with a clear avascular zone (inhibition of angiogenesis) were counted and inhibitory effect of Wondonin A on angiogenesis was evaluated by calculating the ratio of the number of embryo with avascular zone to the total number of embryo tested (see: Table 2).

[3] = test system: vascular endothelial cells; assay: Viability of vascular endothelial cells (Trypan Blue); type: cell-based, Human; settings: 48 hour incubation, medium without FBS
Procedure: Vascular endothelial cells grown on Example 3 were placed onto a 24-well plate with 5×10^4 cells/well starting cell number in 1 ml (per well) of the same medium as in Example 3 except for containing 10% (v/v) FBS, and incubated at 37° C. under an environment of 5% (v/v) CO2 for 24 hours to the level of 80% cell confluency. Then, cells were rinsed with 1 ml of PBS and 1 ml of the same medium without FBS was added and then Wondonin A was added to reach the concentrations of […], respectively. After 48 hour incubation, medium was removed and cells were harvested by trypsinization. Cells were stained in a medium containing 0.4% (w/v) Trypan Blue at room temperature and then counted with haemacytometer. The cell viability was assessed based on total cell number and stained cell number (see: Table 1).

[4] = Physicochemical data of Wondonin A
Text: The spectrophotomeric data of Wondonin A are as follows: […]

## CN(C)CCc1cn(C(c2ccc(O)c(O)c2)C2Oc3ccc(/C=C/OS(=O)(=O)[O-])cc3O2)cn1.[Na+] (stereo not drawn) [Wondonin A]
[1]
  reduction in a cell number passed through the filter compared to the control group: 66%
[2]
  Inhibition of angiogenesis (%): 89%
[3]; Wondonin A 1 μg/ml
  Viability (%): 98%
[3]; Wondonin A 10 μg/ml
  Viability (%): 97%
[4]; methanol and dimethylsulfoxide
  solubility in polar organic solvents: highly soluble
[4]; pale-yellow semi-solid at room temperature
  stability: stable
